Converted amounts (≈) assume the structure as drawn. Read-outs that look alike come from different tables or passages of the source. Marks after values point to notes of the source that are not given here. Where a SMILES comes first, the peptide text is derived from it. The star is where a group is joined. Benzoyl(4-Ph) = O=C(c1ccc(-c2ccccc2)cc1)*; PhAc = O=C(Cc1ccccc1)*; Bz = O=C(c1ccccc1)*
Columns and labels:
[1] = test system: human red blood cells; conditions: cited from earlier work
Text: Table 2 Minimum inhibitory concentrations (MIC) and minimum fungicidal concentrations (MFC) determined for peptides and reference antifungals [g/L]. The highest antimicrobial activity is marked in green, medium values in yellow, while the weakest antifungal activity is marked in red. Minimum hemolytic concentration (MHC5%—causing hemolysis of 5% of human red blood cells) determined in previous stu | column: MHC5%

[2] = test system: Candida strains (C. albicans, C. glabrata, C. lipolytica, C. tropicalis); assay type: cell-based
Description: (§1) Fungal strains were purchased from the Polish Collection of Microorganisms (Polish Academy of Science, Wroclaw, Poland). Four reference strains of Candida (C. albicans ATCC 10231, C. glabrata ATCC 15126, C. lypolytica PCM 2680, and C. tropicalis PCM 2680) were cultured on the Dextrose Sabouraud Agar (DSA, Neogen, Lansing, MI, USA). Before performing the assays, the fungi were cultured in a Sabouraud dextrose broth (DSB, Neogen, Lansing, MI, USA) for 48 h under aerobic conditions at 25 °C. Afterward, the fungal cultures were centrifuged (2500 rpm, 10 min) and resuspended in the appropriate liquid medium for appropriate inoculums for the performed assays.
(§2) The strains cultured described in Section 4.1 were suspended in the Roswell Park Memorial Institute 1640 Medium (RPMI, Sigma-Aldrich, St. Louis, MO, USA) at an initial inoculum of ca. 5 × 10^3 CFU/mL. The stock solutions (1024 mg/L) of tested compounds in RPMI were added to 96-well polystyrene plates and diluted serially to well no. 10, leaving wells 11 and 12 for fertility and sterility controls. The tested Candida strains were exposed to graded concentrations (range 0.5–256 mg/L) of the lipopeptides and conventional antifungals (benzalkonium chloride, fluconazole, and nystatin) for 48 h under aerobic conditions at 25 °C. After incubation, the results were read visually.
(§3) Then the results were read visually. Both MIC as well as the MFC assays were performed threetimes on three different days.

[3] = test system: C. albicans biofilms cultured on polystyrene; assay type: cell-based, Candida albicans
Description: as §1
Fungal suspensions in DSB were added to the wells at initial inoculums of ca. 5 × 10^6 CFU/mL and incubated under aerobic conditions, at 25 °C for 24 h, 48 h, and 72 h, in order to grow candidal biofilms of different maturity. After the appropriate time of incubation, the wells were washed with phosphoric buffered (PBS), and fresh RPMI medium supplemented with antifungals and the lipopeptides at graded concentrations (range […]) were added. The fungal biofilms were exposed to the compounds for 24 h (aerobic conditions, 25 °C). After the exposure to antifungals, the content of the wells was aspirated and a 0.01% solution of resazurin (Sigma-Aldrich, St. Louis, MO, USA) in DSB was added. Resazurin (blue) was applied as a cell viability reagent, which upon contact with living cells is reduced to a pink resorufin. The samples with the dye were incubated for 1 h at 25 °C and the absorbance was measured at 570 and 600 nm with a microplate reader (Thermo Fisher Scientific, Waltham, MA, USA). The assays were performed four times on four different days. The results are presented as the means of the measured percentage of metabolic activity (MA) of fungi in the well when compared with positive (sample with Candida in DSB) and negative controls (pure DSB), which were taken as 100% and 0%, respectively. The MA of Candida in the samples was measured according to the following formula:MA(%) = (ΔAbs of sample − ΔAbs of negative control)/(ΔAbs of positive control − ΔAbs of negative control);(1) ΔAbs = absorbance at 570 nm − absorbance at 600 nm.(2)
The MBEC was taken as the lowest concentration of antifungal which allowed us to reduce the metabolism of fungal cells to 10% (or less) of the positive control.

[4] = test system: C. albicans ATCC 10231; experiment: microbe, parasite or virus in culture; assay type: cell-based, Candida albicans; conditions: MIC wells and two higher concentrations seeded on DSA, 48 h, 25 °C, read visually, three times
Description: as §1, §2, §3

[5] = test system: C. tropicalis PCM 2680; experiment: microbe, parasite or virus in culture; assay type: cell-based, Candida tropicalis; conditions: MIC wells and two higher concentrations seeded on DSA, 48 h, 25 °C, read visually, three times
Description: as §1, §2, §3

[6] = test system: C. tropicalis PCM 2680; experiment: microbe, parasite or virus in culture; assay type: cell-based, Candida tropicalis; conditions: C. tropicalis; RPMI 1640, inoculum ca. 5 × 10^3 CFU/mL, range 0.5–256 mg/L, 48 h, 25 °C, read visually, three times on three days
Description: as §1, §2

[7] = test system: C. glabrata ATCC 15126; experiment: microbe, parasite or virus in culture; assay type: cell-based, Candida glabrata; conditions: MIC wells and two higher concentrations seeded on DSA, 48 h, 25 °C, read visually, three times
Description: as §1, §2, §3

[8] = test system: C. albicans ATCC 10231; experiment: microbe, parasite or virus in culture; assay type: cell-based, Candida albicans; conditions: C. albicans; RPMI 1640, inoculum ca. 5 × 10^3 CFU/mL, range 0.5–256 mg/L, 48 h, 25 °C, read visually, three times on three days
Description: as §1, §2

[9] = test system: C. lypolytica PCM 2680; experiment: microbe, parasite or virus in culture; assay type: cell-based, Candida lipolytica; conditions: MIC wells and two higher concentrations seeded on DSA, 48 h, 25 °C, read visually, three times
Description: as §1, §2, §3

[10] = test system: C. lypolytica PCM 2680; experiment: microbe, parasite or virus in culture; assay type: cell-based, Candida lipolytica; conditions: RPMI 1640, inoculum ca. 5 × 10^3 CFU/mL, range 0.5–256 mg/L, 48 h, 25 °C, read visually, three times on three days
Description: as §1, §2

[11] = test system: C. glabrata ATCC 15126; experiment: microbe, parasite or virus in culture; assay type: cell-based, Candida glabrata; conditions: first C. glabrata column; RPMI 1640, inoculum ca. 5 × 10^3 CFU/mL, range 0.5–256 mg/L, 48 h, 25 °C, read visually, three times on three days
Description: as §1, §2

[12] = human red blood cells, determined in previous studies, ref [13],[14]

SMILES | MHC5% (minimum hemolytic concentration causing hemolysis of 5% of human red blood cells) [1] [g/L] | MIC, range over the tested strains ([2]; 48 h) [µg/mL] | MBEC 24 h ([3]; biofilms cultured on polystyrene, 24 h) | MBEC 48 h ([3]; biofilms cultured on polystyrene, 48 h) | MBEC 72 h ([3]; biofilms cultured on polystyrene, 72 h) | MHC5% (minimum hemolytic concentration causing hemolysis of 5% of human red blood cells) [1, 12] | Minimum fungicidal concentration (MFC), C. albicans [4] [µg/mL] | Minimum fungicidal concentration (MFC), C. tropicalis [5] [µg/mL] | Minimum inhibitory concentration (MIC), C. tropicalis [6] [µg/mL] | Minimum fungicidal concentration (MFC), C. glabrata [7] [µg/mL] | Minimum inhibitory concentration (MIC), C. albicans [8] [µg/mL] | Minimum fungicidal concentration (MFC), C. lipolytica [9] [µg/mL] | Minimum inhibitory concentration (MIC), C. lipolytica [10] [µg/mL] | Minimum inhibitory concentration (MIC), C. glabrata [11] [µg/mL] | Fungicidal activity (MFC relative to MIC) ([2]; MFCs equal to or twice as high as the corresponding MICs) | Antibiofilm concentration (256 mg/L) relative to the determined MIC ([3]; C. albicans biofilm) | MBEC 24 h ([3]; C. albicans biofilm cultured on polystyrene for 24 h, exposure 24 h, 25 °C, RPMI, resazurin, metabolic activity reduced to 10% or less, four times on four days) [mg/L] | MBEC 48 h ([3]; C. albicans biofilm cultured on polystyrene for 48 h, exposure 24 h, 25 °C, RPMI, resazurin, metabolic activity reduced to 10% or less, four times on four days) [mg/L] | MBEC 72 h ([3]; C. albicans biofilm cultured on polystyrene for 72 h, exposure 24 h, 25 °C, RPMI, resazurin, metabolic activity reduced to 10% or less, four times on four days) [mg/L]
CC[C@H](C)[C@H](NC(=O)[C@H](CCCNC(=N)N)NC(=O)[C@H](CCC(N)=O)NC(=O)[C@@H](NC(=O)[C@@H](NC(=O)[C@H](CCCNC(=N)N)NC(=O)[C@H](CCCCN)NC(=O)c1ccc(-c2ccccc2)cc1)[C@@H](C)CC)C(C)C)C(=O)N[C@@H](CCCCN)C(=O)N[C@@H](CC(=O)O)C(=O)N[C@@H](Cc1ccccc1)C(=O)N[C@@H](CC(C)C)C(=O)N[C@@H](CCCNC(=N)N)C(N)=O [XXV, 4-Phenylbenzoic acid-KR12-NH2] ({Benzoyl(4-Ph)}-KRIVQRIKDFLR-NH2) | 32 | 4 to 16 | >512 * mg/L | >512 * mg/L | >512 * mg/L |  |  |  |  |  |  |  |  |  |  |  |  |  | 
CC[C@H](C)[C@H](NC(=O)[C@H](CCCNC(=N)N)NC(=O)[C@H](CCC(N)=O)NC(=O)[C@@H](NC(=O)[C@@H](NC(=O)[C@H](CCCNC(=N)N)NC(=O)[C@H](CCCCN)NC(=O)Cc1ccccc1)[C@@H](C)CC)C(C)C)C(=O)N[C@@H](CCCCN)C(=O)N[C@@H](CC(=O)O)C(=O)N[C@@H](Cc1ccccc1)C(=O)N[C@@H](CC(C)C)C(=O)N[C@@H](CCCNC(=N)N)C(N)=O [XXI, Phenylacetic acid-KR12-NH2] (PhAc-KRIVQRIKDFLR-NH2) |  |  |  |  |  | 256 g/L | 64 (≈ 37.9 µM) | 16 (≈ 9.47 µM) | 8 (≈ 4.74 µM) | 256 (≈ 152 µM) | 64 (≈ 37.9 µM) | 16 (≈ 9.47 µM) | 16 (≈ 9.47 µM) | 256 (≈ 152 µM) |  |  |  |  | 
C[C@@H]1[C@H](O)[C@@H](C)/C=C/C=C/CC/C=C/C=C/C=C/C=C/C(O[C@H]2O[C@H](C)[C@@H](O)[C@H](N)[C@@H]2O)CC2O[C@](O)(CC(O)C(O)CCC(O)CC(O)CC(O)CC(=O)O[C@H]1C)CC(O)C2C(=O)O (stereo partly shown) [Nystatin, nystatin, reference compound] |  |  |  |  |  |  |  |  |  |  |  |  |  |  | fungicidal activity against all Candida strains | over 100 times | 256 | 256 | 256
CC[C@H](C)[C@H](NC(=O)[C@H](CCCNC(=N)N)NC(=O)[C@H](CCC(N)=O)NC(=O)[C@@H](NC(=O)[C@@H](NC(=O)[C@H](CCCNC(=N)N)NC(=O)[C@H](CCCCN)NC(=O)c1ccccc1)[C@@H](C)CC)C(C)C)C(=O)N[C@@H](CCCCN)C(=O)N[C@@H](CC(=O)O)C(=O)N[C@@H](Cc1ccccc1)C(=O)N[C@@H](CC(C)C)C(=O)N[C@@H](CCCNC(=N)N)C(N)=O [VIII, Benzoic acid-KR12-NH2] (Bz-KRIVQRIKDFLR-NH2) |  |  |  |  |  | >256 * g/L | 64 (≈ 38.2 µM) | 16 (≈ 9.55 µM) | 8 (≈ 4.78 µM) | 256 (≈ 153 µM) | 64 (≈ 38.2 µM) | 32 (≈ 19.1 µM) | 32 (≈ 19.1 µM) | 256 (≈ 153 µM) |  |  |  |  | 
